Data from patent US11311543B2, “Compositions and methods for inhibiting PTPN22” (YALE UNIVERSITY, priority 2016, dated 2022).

Assays:
[1] = test system: new emigrant/transitional B cells; experiment: Frequencies of autoreactive new emigrant/transitional B cells (central B cell tolerance) in humanized NSG mice engrafted with PTPN22 C/T or T/T HSCs; format: in vivo, NSG mice engrafted with human HSCs
Method: FIG. 7, comprising FIG. 7A through FIG. 7C depicts results of experiments showing inhibition of PTPN22 enzymatic activity resets central B cell tolerance. FIG. 7A depicts a schematic diagram depicting the PTPN22 inhibitor treatment strategy. NSG mice generated with CD34+ HSCs carrying PTPN22 T allele(s) were injected twice daily with 0.75 mg or 0.15 mg of PTPN22 inhibitor for one week. FIG. 7B depicts the frequencies of polyreactive new emigrant B cells from NSG mice carrying PTPN22 T allele(s) and treated with the PTPN22 inhibitor were determined and compared to those of non-treated NSG mice. […] For each B-cell fraction, the frequency of reactive (filled area) and non-reactive (open area) clones is summarized in pie charts with the total number of clones tested indicated in the center. In summarized reactivity panels on the right, each dot represents an untreated mouse and full and half-filled diamonds mice treated with either 0.75 or 0.15 mg of LTV-1 PTPN22 inhibitor, respectively. Averages are shown with a bar. FIG. 7C depicts the frequencies of HEp-2 reactive new emigrant B cells from NSG mice carrying PTPN22 T allele(s) and treated with the PTPN22 inhibitor were determined and compared to those of non-treated NSG mice. […] For each B-cell fraction, the frequency of reactive (filled area) and non-reactive (open area) clones is summarized in pie charts with the total number of clones tested indicated in the center. In summarized reactivity panels on the right, each dot represents an untreated mouse and full and half-filled diamonds mice treated with either 0.75 or 0.15 mg of LTV-1 PTPN22 inhibitor, respectively. Averages are shown with a bar.
Human CD34^+ cells were purified from fetal liver samples by density gradient centrifugation followed by positive immunomagnetic selection with anti-human CD34 microbeads (Miltenyi). Newborn NSG mice (within first 3 days of life) were sublethally irradiated (X-ray irradiation with X-RAD 320 irradiator at 180 cGy) and 100,000-150,000 CD34^+ cells in 20 μL of PBS were injected into the liver with a 22-gauge needle (Hamilton Company). Mice were used for experiments 10-12 weeks after transplantation. NSG mice treated with the PTPN22 inhibitor were injected twice daily i.p. with 0.75 mg or 0.15 mg of PTPN22 inhibitor for a week.
The pTRIP-Ubi-GFP lentiviral vector has been used for overexpression of PTPN22 variants and short hairpin RNA (shRNA) delivery. Vector constructions have been described previously (Cantaert et al., 2015, Immunity 43:884-95; Ruer-Laventie et al., 2015, Immun Inflamm Dis 3:265-79). The following sequence are used for human PTPN22 targeting: shRNA1 5′-[…]-3′ (SEQ ID NO: 1), shRNA2 5′-CTGTTGCCAACATCCTCTA-3′(SEQ ID NO: 3), or shRNA3 5′-AAGAATCCACCTGACTTCC-3′(SEQ ID NO: 2). Lentiviral particles were produced by transient transfection of 293T cells, as previously described (Schickel et al., 2012, EMBO Mol Med 4:1261-75). Viruses were then used to transduce CD34^+ HSCs in the presence of protamine sulfate (Sigma).
B cells were enriched from splenocytes using magnetic separation with CD19 microbeads (Miltenyi Biotech) and stained with CD19-Pacific Blue, CD10-PE-Cy7, CD21-APC and IgM-biotin (all from Biolegend) prior to purification. Single CD19^+CD10^+CD21^lowGFP^− or GFP^+ new emigrant B cells were sorted on a FACSAria (BD Biosciences) into 96-well PCR plates and immediately frozen on dry ice. […]

RAMOS cells = experiment: Calcium flux induced by BCR triggering in RAMOS cells (flow cytometry); format: cell-based, human; conditions: LTV-1 5 μg/mL, anti-IgM F(ab′)2, especially at lower concentration of BCR triggering agent
Method: (§1) FIG. 40A depicts the phosphorylation of SHIP1, Lyn and ERK1/2 in total cell lysates of Ramos B cells treated or not with the PTPN22 inhibitor LTV-1 (5 μg/mL) for the indicated times. The cells were subjected to immunoblot analysis of P-LYN P-SHIP1, P-ERK1/2, and β-ACTIN. FIG. 40B depicts flow cytometry analysis of calcium flux of Ramos B cells treated or not with the PTPN22 inhibitor LTV-1 (5 μg/mL) for the indicated times followed by stimulation with anti-IgM F(ab′)2 at the indicated concentrations. FIG. 40C depicts flow cytometry analysis of calcium flux of splenocyte cells treated or not with LTV-1 (0.75 mg) twice daily for 7 days and stimulated with anti-IgM F(ab′)2 (25 μg/mL). FIG. 40D depicts flow cytometry analysis of calcium flux of splenocyte expressing PTPN22 shRNA and stimulated with anti-IgM F(ab′)2 (25 μg/mL).
(§2) However, downstream ERK phosphorylation was not affected by PTPN22 inhibition (FIG. 40A). Since PTPN22 inhibition enhanced TCR signaling in Jurkat cell line, it was investigated if PTPN22 blockade may also increase BCR signaling and calcium flux induced by BCR triggering was measured in RAMOS cells in the presence or not of LTV-1. Calcium flux was increased by PTPN22 inhibition, especially at lower concentration of BCR triggering agent (FIG. 40B). […]

[2] = test system: B cells isolated from humanized mice; experiment: Calcium flux after BCR triggering in B cells isolated from humanized mice (flow cytometry); format: in vivo, humanized NSG mouse; conditions: anti-IgM F(ab′)2 25 μg/mL
Method: as §1, §2

[3] = GFP+ shRNA+ PTPN22 C/T or T/T new emigrant/transitional B cells vs GFP- counterparts

Compound | frequencies of HEp-2 reactive new emigrant/transitional B cells ([1]; PTPN22 C/T or T/T engrafted NSG mice, 0.75 mg LTV-1 i.p. twice daily for a week) | frequencies of polyreactive new emigrant/transitional B cells ([1]; PTPN22 C/T or T/T engrafted NSG mice, 0.75 mg LTV-1 i.p. twice daily for a week, vs non-treated) | anti-nuclear clone frequencies ([1]; PTPN22 C/T or T/T engrafted NSG mice, LTV-1 twice daily for a week) | calcium flux induced by BCR triggering (RAMOS cells) | calcium flux in B cells isolated from treated humanized mice ([2]; LTV-1 0.75 mg twice daily for 7 days, vs non-treated) | production of HEp-2 reactive clones [1, 3] | production of polyreactive clones [1, 3] | calcium flux after BCR triggering in GFP+ shRNA-expressing B cells ([2]; GFP+ vs GFP- B cells from humanized NSG mouse)
Cc1ccccc1N1C(=O)/C(=C/c2ccc(OCc3cccc(C(=O)O)c3)cc2)C(=O)NC1=S [LTV-1] | normalized | significantly reduced | remained very low | increased | enhanced | – | – | –
shRNA #1: shRNA targeting human PTPN22, 5′-CTAGTGCTCTTGGTGTATATT-3′, delivered by GFP-tagged lentivirus | – | – | – | – | – | significantly reduced | significantly reduced | increased calcium flux
